Test results published in US20260365670A1, “EGFR INHIBITORS AND USES THEREOF” (DIZAL (JIANGSU) PHARMACEUTICAL CO., LTD., priority 2022, published 2026).
pIC50: −log10 of the molar value. Read-outs that look alike come from different tables or passages of the source.

What was measured:
[1] = biological target: T1, EGFR wild type (Homo sapiens, UniProt P00533); assay: Inhibition of EGFR wild type biochemical enzymatic activity (HTRF); settings: EGFR WT, 1 mM ATP, 1 h, room temperature, read-out: IC50 (nM) @WT
T1 construct: purchased Carna Bio
Method in brief: (§1)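 HTRF kinase assay: each EGFR enzyme phosphorylated 1 μM biotinylated TK substrate with 1 mM ATP in buffer containing 5 mM MgCl2, 1 mM MnCl2, 0.01% CHAPS, 1 mM DTT, 0.5% DMSO. After 1 h at room temperature, EDTA detection mix stopped the reaction. IC50 came from a four-parameter logistic fit of the 665/615 nm ratio.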

[2] = biological target: T2, EGFR Exon19Del (Homo sapiens, UniProt P00533, DEL746-750); assay: Inhibition of EGFR Exon19Del biochemical enzymatic activity (HTRF); settings: EGFR Del19, 1 mM ATP, 1 h, room temperature, read-out: IC50 @Del19
T2 construct: purchased Carna Bio
Method in brief: as §1

[3] = biological target: T3, EGFR (d746-750 C797S) (Homo sapiens, UniProt P00533, C797S/DEL746-750); assay: Inhibition of EGFR (d746-750 C797S) biochemical enzymatic activity (HTRF); settings: EGFR Del19-C797S, 1 mM ATP, 1 h, room temperature, read-out: IC50 (nM) @Del19-C797S
T3 construct: purchased signalchem
Method in brief: as §1

[4] = test system: PC-9; assay: Cell proliferation assay, PC-9 cells (CellTiter-Glo, 72 hours); format: cell-based; settings: PC9 cells, CellTiter-Glo, read-out: PC9 GI50
Method in brief: (§2)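 Ba/F3 cells carrying EGFR mutants (5000/well) or PC-9 cells (500/well) in RPMI1640 were dosed with compound series after overnight attachment and grown 72 h. Viability read by CellTiter-Glo, with day-0 counts subtracted; GI50 from curve fits of % proliferation versus DMSO control.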

[5] = test system: Ba/F3 cells expressing EGFR mutations; assay: Cell proliferation assay, Ba/F3 cells expressing EGFR mutations (CellTiter-Glo, 72 hours); format: cell-based; settings: CellTiter-Glo
Method in brief: as §2

[6] = biological target: T4, EGFR Exon19Del/T790M (Homo sapiens, UniProt P00533, DEL746-750/T790M); assay: Inhibition of EGFR Exon19Del/T790M biochemical enzymatic activity (HTRF); settings: EGFR Del19-T790M, 1 mM ATP, 1 h, room temperature, read-out: IC50 (nM) @Del19-T790M
T4 construct: purchased Carna Bio
Method in brief: as §1

[7] = biological target: T5, EGFR (C797S L858R) (Homo sapiens, UniProt P00533, C797S/L858R); assay: Inhibition of EGFR (C797S L858R) biochemical enzymatic activity (HTRF); settings: EGFR L858-C797S, 1 mM ATP, 1 h, room temperature, read-out: IC50 (nM) @L858-C797S
T5 construct: purchased signalchem
Method in brief: as §1

[8] = biological target: T6, EGFR[T790M/C797S/d746-750] (Homo sapiens, UniProt P00533, C797S/DEL746-750/T790M); assay: Inhibition of EGFR[T790M/C797S/d746-750] biochemical enzymatic activity (HTRF); settings: EGFR T790M-C797S-Del19, 1 mM ATP, 1 h, room temperature, read-out: IC50 (nM) @T790M - C797S - Del19
T6 construct: purchased Carna Bio
Method in brief: as §1

[9] = test system: A-431; assay: Cell proliferation GI50, A-431 cells (Table 6); format: cell-based
[10] = biological target: T7, EGFR[T790M/C797S/L858R] (Homo sapiens, UniProt P00533, C797S/L858R/T790M); assay: Inhibition of EGFR[T790M/C797S/L858R] biochemical enzymatic activity (HTRF); settings: EGFR T790M-C797S-L858R, 1 mM ATP, 1 h, room temperature, read-out: IC50 (nM) @T790M- C797S - L858R
T7 construct: purchased Carna Bio
Method in brief: as §1

[11] = biological target: T8, EGFR L858R/T790M (Homo sapiens, UniProt P00533, L858R/T790M); assay: Inhibition of EGFR L858R/T790M biochemical enzymatic activity (HTRF); settings: EGFR L858R-T790M, 1 mM ATP, 1 h, room temperature, read-out: IC50 (nM) @L858R-T790M
T8 construct: purchased Carna Bio
Method in brief: as §1

[12] = biological target: T9, EGFR L858R (Homo sapiens, UniProt P00533, L858R); assay: Inhibition of EGFR L858R biochemical enzymatic activity (HTRF); settings: 1 mM ATP, 1 h, room temperature, read-out: IC50 (nM) @L858R
T9 construct: purchased Carna Bio
Method in brief: as §1

[13] = Mus musculus, BaF3, 72 h, BaF3 cells, EGFR DEL19-C797S, read-out: DEL19-C797S/BaF3 GI50
[14] = Mus musculus, BaF3, 72 h, BaF3 cells, EGFR DEL19-T790-C797S, read-out: DEL19-T790-C797S/BaF3 GI50
[15] = Mus musculus, BaF3, 72 h, BaF3 cells, EGFR L858R, read-out: L858R/BaF3 GI50
[16] = Mus musculus, BaF3, 72 h, BaF3 cells, EGFR L858R-C797S, read-out: L858R-C797S/BaF3 GI50
[17] = Mus musculus, BaF3, 72 h, BaF3 cells, EGFR L858R-T790-C797S, read-out: L858R-T790-C797S/BaF3 GI50
[18] = Mus musculus, BaF3, 72 h, BaF3 cells, EGFR L858R-T790M, read-out: L858R-T790M/BaF3 GI50
[19] = Mus musculus, BaF3, 72 h, EGFR DEL19-T790M, read-out: DEL19-T790M GI50
[20] = Homo sapiens, A-431, A-431 cells
[21] = BaF3 cells, EGFR DEL19-C797S, read-out: DEL19-C797S/BaF3 GI50
[22] = BaF3 cells, EGFR DEL19-T790-C797S, read-out: DEL19-T790-C797S/BaF3 GI50
[23] = BaF3 cells, EGFR L858R, read-out: L858R/BaF3 GI50
[24] = BaF3 cells, EGFR L858R-C797S, read-out: L858R-C797S/BaF3 GI50
[25] = BaF3 cells, EGFR L858R-T790-C797S, read-out: L858R-T790-C797S/BaF3 GI50
[26] = BaF3 cells, EGFR L858R-T790M, read-out: L858R-T790M/BaF3 GI50
[27] = EGFR DEL19-T790M, read-out: DEL19-T790M GI50

T6 sequence (P00533 with tags, fused parts or gaps DEL746-750/T790M/C797S limits assumed): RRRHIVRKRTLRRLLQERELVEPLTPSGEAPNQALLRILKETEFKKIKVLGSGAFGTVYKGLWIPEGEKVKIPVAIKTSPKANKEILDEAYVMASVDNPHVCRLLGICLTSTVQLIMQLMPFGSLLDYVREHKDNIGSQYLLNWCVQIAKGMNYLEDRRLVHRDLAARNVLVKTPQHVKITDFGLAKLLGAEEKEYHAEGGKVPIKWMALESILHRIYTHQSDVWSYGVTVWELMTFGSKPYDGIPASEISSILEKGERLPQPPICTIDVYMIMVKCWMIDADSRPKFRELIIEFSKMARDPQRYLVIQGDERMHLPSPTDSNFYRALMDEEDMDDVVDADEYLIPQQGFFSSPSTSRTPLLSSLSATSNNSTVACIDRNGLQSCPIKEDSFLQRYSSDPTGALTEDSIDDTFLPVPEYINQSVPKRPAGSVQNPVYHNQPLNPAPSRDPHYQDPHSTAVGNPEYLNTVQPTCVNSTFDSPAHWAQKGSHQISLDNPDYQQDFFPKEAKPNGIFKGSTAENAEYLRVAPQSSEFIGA
T1 sequence (P00533 25-1210): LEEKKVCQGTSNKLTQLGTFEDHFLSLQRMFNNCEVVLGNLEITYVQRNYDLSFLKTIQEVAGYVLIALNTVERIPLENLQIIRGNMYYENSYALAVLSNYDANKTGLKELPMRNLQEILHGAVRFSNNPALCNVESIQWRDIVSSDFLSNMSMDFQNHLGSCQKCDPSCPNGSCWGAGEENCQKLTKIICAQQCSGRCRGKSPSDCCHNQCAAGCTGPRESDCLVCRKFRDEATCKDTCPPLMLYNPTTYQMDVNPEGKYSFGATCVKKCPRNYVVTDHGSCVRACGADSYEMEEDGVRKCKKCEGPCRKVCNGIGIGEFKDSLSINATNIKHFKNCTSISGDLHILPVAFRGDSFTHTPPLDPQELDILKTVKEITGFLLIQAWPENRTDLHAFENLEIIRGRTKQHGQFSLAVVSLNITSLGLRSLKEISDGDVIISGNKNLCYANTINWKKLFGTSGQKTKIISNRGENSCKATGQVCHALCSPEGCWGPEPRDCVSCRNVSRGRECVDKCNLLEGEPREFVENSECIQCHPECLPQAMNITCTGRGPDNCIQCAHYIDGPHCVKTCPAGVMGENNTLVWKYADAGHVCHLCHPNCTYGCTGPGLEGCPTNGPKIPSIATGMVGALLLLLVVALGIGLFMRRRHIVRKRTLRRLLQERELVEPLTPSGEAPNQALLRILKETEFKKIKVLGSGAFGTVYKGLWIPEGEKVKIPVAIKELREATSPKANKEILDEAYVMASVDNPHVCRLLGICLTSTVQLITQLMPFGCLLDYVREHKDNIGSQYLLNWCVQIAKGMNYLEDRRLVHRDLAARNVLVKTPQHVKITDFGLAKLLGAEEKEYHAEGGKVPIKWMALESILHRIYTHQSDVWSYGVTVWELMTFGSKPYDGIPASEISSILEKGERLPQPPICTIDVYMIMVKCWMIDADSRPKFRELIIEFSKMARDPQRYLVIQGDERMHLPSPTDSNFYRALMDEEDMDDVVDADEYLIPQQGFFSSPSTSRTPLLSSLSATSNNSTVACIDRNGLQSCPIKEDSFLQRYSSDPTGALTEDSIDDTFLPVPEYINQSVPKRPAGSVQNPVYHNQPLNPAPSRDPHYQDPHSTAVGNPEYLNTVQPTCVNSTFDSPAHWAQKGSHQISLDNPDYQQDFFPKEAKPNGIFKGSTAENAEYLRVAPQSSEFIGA
T7 sequence (P00533 25-1210 T790M/C797S/L858R): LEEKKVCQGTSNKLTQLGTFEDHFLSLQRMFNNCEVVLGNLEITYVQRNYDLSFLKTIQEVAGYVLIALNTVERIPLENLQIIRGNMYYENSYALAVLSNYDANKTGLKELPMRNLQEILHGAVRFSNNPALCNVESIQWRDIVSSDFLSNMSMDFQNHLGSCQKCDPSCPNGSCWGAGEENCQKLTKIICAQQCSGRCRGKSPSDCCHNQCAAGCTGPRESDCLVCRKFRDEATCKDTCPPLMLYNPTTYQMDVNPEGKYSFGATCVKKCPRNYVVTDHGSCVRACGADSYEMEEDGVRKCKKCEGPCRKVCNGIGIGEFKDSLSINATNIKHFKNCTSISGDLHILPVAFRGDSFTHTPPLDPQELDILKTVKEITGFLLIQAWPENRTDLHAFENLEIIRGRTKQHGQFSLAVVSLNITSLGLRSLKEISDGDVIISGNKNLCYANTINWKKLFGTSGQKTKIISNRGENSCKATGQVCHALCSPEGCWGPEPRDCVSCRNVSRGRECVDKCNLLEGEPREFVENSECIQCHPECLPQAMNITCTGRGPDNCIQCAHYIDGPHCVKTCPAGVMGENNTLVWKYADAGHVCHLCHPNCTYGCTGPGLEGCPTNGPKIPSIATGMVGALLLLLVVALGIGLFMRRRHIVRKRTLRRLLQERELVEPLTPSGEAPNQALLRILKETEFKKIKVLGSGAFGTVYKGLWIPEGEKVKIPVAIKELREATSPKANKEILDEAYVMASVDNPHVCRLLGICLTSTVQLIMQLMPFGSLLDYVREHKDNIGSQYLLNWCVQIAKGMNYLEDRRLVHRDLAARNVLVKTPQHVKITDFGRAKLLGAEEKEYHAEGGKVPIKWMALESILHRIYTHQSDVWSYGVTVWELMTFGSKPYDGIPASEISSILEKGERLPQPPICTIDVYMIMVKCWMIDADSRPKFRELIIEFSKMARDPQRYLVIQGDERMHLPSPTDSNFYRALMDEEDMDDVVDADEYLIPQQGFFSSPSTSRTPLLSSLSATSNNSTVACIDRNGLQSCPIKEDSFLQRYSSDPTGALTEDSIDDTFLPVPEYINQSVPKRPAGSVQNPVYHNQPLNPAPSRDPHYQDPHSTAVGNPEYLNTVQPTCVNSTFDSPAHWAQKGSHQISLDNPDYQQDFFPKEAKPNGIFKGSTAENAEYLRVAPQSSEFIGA
T3 sequence (P00533 with tags, fused parts or gaps DEL746-750/C797S limits assumed): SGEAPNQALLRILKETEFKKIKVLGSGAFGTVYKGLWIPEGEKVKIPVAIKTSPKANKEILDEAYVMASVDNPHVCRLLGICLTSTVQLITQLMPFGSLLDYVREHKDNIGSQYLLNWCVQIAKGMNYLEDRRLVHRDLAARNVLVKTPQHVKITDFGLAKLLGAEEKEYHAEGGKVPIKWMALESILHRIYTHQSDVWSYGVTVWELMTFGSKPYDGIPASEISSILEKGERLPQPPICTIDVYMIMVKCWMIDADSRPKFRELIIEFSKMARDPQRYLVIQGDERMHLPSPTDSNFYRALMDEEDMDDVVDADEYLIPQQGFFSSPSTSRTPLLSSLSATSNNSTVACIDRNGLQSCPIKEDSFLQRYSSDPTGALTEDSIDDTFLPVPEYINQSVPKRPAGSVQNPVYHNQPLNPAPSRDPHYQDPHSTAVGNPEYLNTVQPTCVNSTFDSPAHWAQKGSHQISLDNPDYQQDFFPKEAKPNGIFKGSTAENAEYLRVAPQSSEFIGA
T4 sequence (P00533 with tags, fused parts or gaps DEL746-750/T790M limits assumed): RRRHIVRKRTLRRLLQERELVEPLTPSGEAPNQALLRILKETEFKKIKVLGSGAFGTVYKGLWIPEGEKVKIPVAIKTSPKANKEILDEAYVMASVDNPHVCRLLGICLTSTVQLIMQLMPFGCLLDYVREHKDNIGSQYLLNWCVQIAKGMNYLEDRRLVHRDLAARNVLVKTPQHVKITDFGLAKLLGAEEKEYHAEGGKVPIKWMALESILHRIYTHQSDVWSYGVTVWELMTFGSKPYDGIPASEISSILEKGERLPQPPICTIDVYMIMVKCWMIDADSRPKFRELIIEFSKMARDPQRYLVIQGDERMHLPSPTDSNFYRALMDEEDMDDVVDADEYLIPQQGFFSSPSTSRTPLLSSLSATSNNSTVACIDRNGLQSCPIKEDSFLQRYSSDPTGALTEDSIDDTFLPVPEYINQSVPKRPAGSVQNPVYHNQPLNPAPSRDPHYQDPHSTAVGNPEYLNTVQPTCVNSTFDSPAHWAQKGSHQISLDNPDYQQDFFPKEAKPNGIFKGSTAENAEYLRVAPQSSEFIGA
T2 sequence (P00533 with tags, fused parts or gaps DEL746-750 limits assumed): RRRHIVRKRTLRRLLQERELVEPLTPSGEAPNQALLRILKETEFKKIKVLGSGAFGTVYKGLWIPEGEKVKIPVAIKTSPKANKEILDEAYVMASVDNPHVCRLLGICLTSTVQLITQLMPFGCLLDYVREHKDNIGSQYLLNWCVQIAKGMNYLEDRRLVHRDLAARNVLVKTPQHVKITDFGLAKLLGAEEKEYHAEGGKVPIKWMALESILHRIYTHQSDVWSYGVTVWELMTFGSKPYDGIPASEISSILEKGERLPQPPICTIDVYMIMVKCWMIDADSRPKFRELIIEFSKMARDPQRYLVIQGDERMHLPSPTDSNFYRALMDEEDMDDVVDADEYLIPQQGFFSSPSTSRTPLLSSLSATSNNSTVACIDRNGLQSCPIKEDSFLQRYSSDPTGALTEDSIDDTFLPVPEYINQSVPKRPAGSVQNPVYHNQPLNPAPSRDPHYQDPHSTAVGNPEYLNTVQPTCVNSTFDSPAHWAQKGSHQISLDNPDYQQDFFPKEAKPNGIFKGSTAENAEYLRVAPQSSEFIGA

Row | IC50 [1] [nM] | pIC50 [2] | IC50 [3] [nM] | GI50 ([4]; Homo sapiens, PC-9, 72 h) [nM] | GI50 [5, 13] [nM] | GI50 [5, 14] [nM] | GI50 [5, 15] [nM] | GI50 [5, 16] [nM] | GI50 [5, 17] [nM] | GI50 [5, 18] [nM] | GI50 [5, 19] [nM] | IC50 [6] [nM] | IC50 [7] [nM] | IC50 [8] [nM] | GI50 [9, 20] [nM] | IC50 [10] [nM] | IC50 [11] [nM] | IC50 [12] [nM] | GI50 [4] [nM] | GI50 [5, 21] [nM] | Structure (SMILES) | also measured
1 | > 5000 | 7.74 | 12 | 115 | 12 | 31 | 79 | 61 | 37 | 307 | 59 | 5.7 | 167 | 3.4 | 2910 | 32 | 195 | 414 |  |  | C[C@@H]1CCCOc2c(cnn2C)-c2cc(cn(C)c2=O)C(=O)Nc2nc3ccc4c(c3n2C1)CCNC4 [Example A102, (11R)-5,11,30-Trimethyl-7-oxa-4,5,13,18,24,26,30-heptaazahexacyclo[26.3.1.0^{2,6}.0^{13,25}.0^{14,23}.0^{15,20}]dotriaconta-1(32),2(6),3,14,20,22,24,28-octaene-27,31-dione] | 
2 | > 5000 | 6.58 | 536 | 211 | 55 | 405 | 608 | 515 | 607 | 264 | 364 | 198 | > 5000 | 316 | 3020 | > 5000 | > 5000 | > 5000 |  |  | Cn1ncc2c1OCCN1CC3(CCCC1C3)n1c(nc3ccc(N4CCOCC4)cc31)NC(=O)c1cc-2c(=O)n(C)c1 (stereo not drawn) [Example A9, 15,21-Dimethyl-5-(morpholin-4-yl)-23-oxa-2,9,11,15,20,21,26-heptaazaheptacyclo[24.4.1.1^{1,27}.1^{13,17}.0^{2,10}.0^{3,8}.0^{18,22}]tritriaconta-3,5,7,9,13,17(33),18(22),19-octaene-12,16-dione] | 
3 | 281 | 8.47 | 1.7 | 4.3 | 0.7 | 3.3 | 3.2 | 3.8 | 2.5 | 10 | 5.5 | 1.4 | 13 | 1.2 | 166 | 2.3 | 6.5 | 40 |  |  | C[C@@H]1CCCOc2c(cnn2C)-c2cc(cn(C)c2=O)C(=O)Nc2nc3ccc(N4CC(N(C)C)C4)cc3n2C1 [Example A37] | 

Second part, the compound before the results:

Row | Structure (SMILES) | IC50 [1] [nM] | pIC50 [2] | IC50 [3] [nM] | GI50 ([4]; Homo sapiens, PC-9, 72 h) [nM] | GI50 [5, 13] [nM] | GI50 [5, 14] [nM] | GI50 [5, 15] [nM] | GI50 [5, 16] [nM] | GI50 [5, 17] [nM] | GI50 [5, 18] [nM] | GI50 [5, 19] [nM] | IC50 [6] [nM] | IC50 [7] [nM] | IC50 [8] [nM] | GI50 [9, 20] [nM] | IC50 [10] [nM] | IC50 [11] [nM] | IC50 [12] [nM] | GI50 [4] [nM] | GI50 [5, 21] [nM] | also measured
4 | CN(C)CC1(F)CN(c2ccc3nc4n(c3c2)C23CCC(CN(CCOc5c(cnn5C)-c5cc(cn(C)c5=O)C(=O)N4)C2)C3)C1 (single isomer, unassigned) [Example A72B] | 5.2 | 8.74 | 0.92 |  |  |  |  |  |  |  |  | 2.4 | 2 | 2.2 | 731 | 1.3 | 1.8 | 2.4 | 2.1 | 0.51 | GI50 [5, 22]: 0.58 nM; GI50 [5, 23]: 0.88 nM; GI50 [5, 24]: 1.9 nM; GI50 [5, 25]: 0.51 nM; GI50 [5, 26]: 1.6 nM; GI50 [5, 27]: 0.51 nM
5 | CN1CCN(c2ccc3c(c2)nc2n3C34CCC(CN(CCOc5c(cnn5C)-c5cc(cn(C)c5=O)C(=O)N2)C3)C4)CC1 (stereo not drawn) [Example A60A, 15,21-dimethyl-6-(4-methylpiperazin-1-yl)-23-oxa-2,9,11,15,20,21,26-heptaazaheptacyclo[24.4.1.1^{1,28}.1^{13,17}.0^{2,10}.0^{3,8}.0^{18,22}]tritriaconta-3,5,7,9,13,17(33),18(22),19-octaene-12,16-dione] | > 5000 | 6.56 | 196 |  |  |  |  |  |  |  |  | 141 | > 5000 | 117 |  | > 5000 | > 5000 | > 5000 | 633 | 96 | GI50 [5, 22]: 166 nM; GI50 [5, 23]: 315 nM; GI50 [5, 24]: 519 nM; GI50 [5, 25]: 403 nM; GI50 [5, 26]: 1400 nM; GI50 [5, 27]: 285 nM; GI50 ([9]; A-431 cells): 6550 nM
6 | CN(C)C1CCN(c2ccc3nc4n(c3c2)C23CCC(CN(CCOc5c(cnn5C)-c5cc(cn(C)c5=O)C(=O)N4)C2)C3)CC1(F)F (single isomer, unassigned) [Example A97B] | 224 | 8.36 | 1.7 |  |  |  |  |  |  |  |  | 4.9 | 8.4 | 4.8 |  | 4.7 | 5.7 | 14 | 24 | 0.76 | GI50 [5, 22]: 5.6 nM; GI50 [5, 23]: 2 nM; GI50 [5, 24]: 3 nM; GI50 [5, 25]: 3.5 nM; GI50 [5, 26]: 13 nM; GI50 [5, 27]: 6.4 nM; GI50 ([9]; A-431 cells): 1450 nM
